The supplement of paper PMC10307832

What was measured:
Experiment in all cases: relative viability (nuclei count vs DMSO), 5 days (fraction); higher = more cells survive
NCI-H596 = system: NCI-H596
Outline: (§1)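 Nuclei were stained with Hoechst during a one-step fixation (final 0.05% Triton X-100, 1% formaldehyde, 1 ug/ml Hoechst) carried out 5 days after dosing, then counted on 4× images. The cells, lung cancer lines in 1536-well plates, had been dosed by pin tool the day after seeding with one drug alone or a fixed anchor-drug dose plus five library-drug doses (not always all listed) in √10 steps. Relative viability is the nuclei count in treated wells divided by that in vehicle wells, and each value is the median of duplicate plates.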

LU99A = system: LU99A
Outline: as §1

SW 1573 = system: SW 1573
Outline: as §1

NCI-H1793 = system: NCI-H1793
Outline: as §1

NCI-H727 = system: NCI-H727
Outline: as §1

NCI-H2170 = system: NCI-H2170
Outline: as §1

HOP-62 = system: HOP-62
Outline: as §1

NCI-H2228 = system: NCI-H2228
Outline: as §1

SK-LU-1 = system: SK-LU-1
Outline: as §1

HARA = system: HARA
Outline: as §1

NCI-H3122 = system: NCI-H3122
Outline: as §1

COR-L23 = system: COR-L23
Outline: as §1

A-427 = system: A-427
Outline: as §1

NCI-H1993 = system: NCI-H1993
Outline: as §1

LXF-289 = system: LXF-289
Outline: as §1

NCI-H1944 = system: NCI-H1944
Outline: as §1

SW 900 = system: SW 900
Outline: as §1

EMC-BAC-2 = system: EMC-BAC-2
Outline: as §1

SK-MES-1 = system: SK-MES-1
Outline: as §1

LK-2 = system: LK-2
Outline: as §1

ABC-1 = system: ABC-1
Outline: as §1

NCI-H2009 = system: NCI-H2009
Outline: as §1

PC-3 [JPC-3] = system: PC-3 [JPC-3]
Outline: as §1

## COc1cc(N2CCC(C(N)=O)CC2)ccc1Nc1nc(N)c(Cl)c(Nc2ccccc2S(=O)(=O)C(C)C)n1 [HG-5-88-01] + COc1cc2c(Oc3ccc(NC(=O)C4(C(=O)Nc5ccc(F)cc5)CC4)cc3F)ccnc2cc1OCCCN1CCOCC1 [Foretinib] (partner 0.25 µM)
NCI-H596; first compound 0.04 µM
  relative viability: 0.956
NCI-H596; first compound 0.1265 µM
  relative viability: 0.871
NCI-H596; first compound 0.4 µM
  relative viability: 0.801
NCI-H596; first compound 1.265 µM
  relative viability: 0.895
NCI-H596; first compound 4 µM
  relative viability: 0.487
LU99A; first compound 0.04 µM
  relative viability: 0.774
LU99A; first compound 0.1265 µM
  relative viability: 0.751
LU99A; first compound 0.4 µM
  relative viability: 0.781
LU99A; first compound 1.265 µM
  relative viability: 0.83
LU99A; first compound 4 µM
  relative viability: 0.801
SW 1573; first compound 0.04 µM
  relative viability: 0.868
SW 1573; first compound 0.1265 µM
  relative viability: 0.816
SW 1573; first compound 0.4 µM
  relative viability: 0.942
SW 1573; first compound 1.265 µM
  relative viability: 0.736
SW 1573; first compound 4 µM
  relative viability: 0.624
NCI-H1793; first compound 0.1265 µM
  relative viability: 0.787
NCI-H1793; first compound 0.4 µM
  relative viability: 0.615
NCI-H1793; first compound 4 µM
  relative viability: 0.423
NCI-H727; first compound 0.04 µM
  relative viability: 1.07
NCI-H727; first compound 0.1265 µM
  relative viability: 0.843
NCI-H727; first compound 0.4 µM
  relative viability: 0.811
NCI-H727; first compound 1.265 µM
  relative viability: 0.55
NCI-H727; first compound 4 µM
  relative viability: 0.581
NCI-H2170; first compound 0.04 µM
  relative viability: 1.01
NCI-H2170; first compound 0.1265 µM
  relative viability: 0.973
NCI-H2170; first compound 0.4 µM
  relative viability: 0.967
NCI-H2170; first compound 1.265 µM
  relative viability: 0.947
NCI-H2170; first compound 4 µM
  relative viability: 1.12
HOP-62; first compound 0.04 µM
  relative viability: 1.15
HOP-62; first compound 0.1265 µM
  relative viability: 1.12
HOP-62; first compound 0.4 µM
  relative viability: 1.01
HOP-62; first compound 1.265 µM
  relative viability: 1.13
HOP-62; first compound 4 µM
  relative viability: 1.3
NCI-H2228; first compound 0.04 µM
  relative viability: 0.593
NCI-H2228; first compound 0.1265 µM
  relative viability: 0.327
NCI-H2228; first compound 0.4 µM
  relative viability: 0.353
NCI-H2228; first compound 1.265 µM
  relative viability: 0.219
NCI-H2228; first compound 4 µM
  relative viability: 0.27
SK-LU-1; first compound 0.04 µM
  relative viability: 0.839
SK-LU-1; first compound 0.1265 µM
  relative viability: 0.834
SK-LU-1; first compound 0.4 µM
  relative viability: 0.751
SK-LU-1; first compound 1.265 µM
  relative viability: 0.738
SK-LU-1; first compound 4 µM
  relative viability: 0.618
HARA; first compound 0.04 µM
  relative viability: 0.917
HARA; first compound 0.1265 µM
  relative viability: 0.878
HARA; first compound 0.4 µM
  relative viability: 0.875
HARA; first compound 1.265 µM
  relative viability: 0.733
HARA; first compound 4 µM
  relative viability: 0.694
NCI-H3122; first compound 0.04 µM
  relative viability: 0.891
NCI-H3122; first compound 0.1265 µM
  relative viability: 0.684
NCI-H3122; first compound 0.4 µM
  relative viability: 0.205
NCI-H3122; first compound 1.265 µM
  relative viability: 0.169
NCI-H3122; first compound 4 µM
  relative viability: 0.15
COR-L23; first compound 0.04 µM
  relative viability: 0.903
COR-L23; first compound 0.1265 µM
  relative viability: 0.995
COR-L23; first compound 0.4 µM
  relative viability: 0.99
COR-L23; first compound 1.265 µM
  relative viability: 0.768
COR-L23; first compound 4 µM
  relative viability: 0.805
A-427; first compound 0.04 µM
  relative viability: 1.13
A-427; first compound 0.1265 µM
  relative viability: 1.13
A-427; first compound 0.4 µM
  relative viability: 0.953
A-427; first compound 1.265 µM
  relative viability: 1.08
A-427; first compound 4 µM
  relative viability: 1.08
NCI-H1993; first compound 0.04 µM
  relative viability: 0.739
NCI-H1993; first compound 0.1265 µM
  relative viability: 0.727
NCI-H1993; first compound 0.4 µM
  relative viability: 0.725
NCI-H1993; first compound 1.265 µM
  relative viability: 0.586
NCI-H1993; first compound 4 µM
  relative viability: 0.623
LXF-289; first compound 0.04 µM
  relative viability: 1.04
LXF-289; first compound 0.1265 µM
  relative viability: 0.937
LXF-289; first compound 0.4 µM
  relative viability: 0.977
LXF-289; first compound 1.265 µM
  relative viability: 0.977
LXF-289; first compound 4 µM
  relative viability: 1.05
NCI-H1944; first compound 0.04 µM
  relative viability: 0.874
NCI-H1944; first compound 0.1265 µM
  relative viability: 0.884
NCI-H1944; first compound 0.4 µM
  relative viability: 0.917
NCI-H1944; first compound 1.265 µM
  relative viability: 0.883
NCI-H1944; first compound 4 µM
  relative viability: 0.886
SW 900; first compound 0.04 µM
  relative viability: 0.996
SW 900; first compound 0.1265 µM
  relative viability: 1.08
SW 900; first compound 0.4 µM
  relative viability: 0.926
SW 900; first compound 1.265 µM
  relative viability: 0.918
SW 900; first compound 4 µM
  relative viability: 0.493
EMC-BAC-2; first compound 0.04 µM
  relative viability: 1.06
EMC-BAC-2; first compound 0.1265 µM
  relative viability: 1.09
EMC-BAC-2; first compound 0.4 µM
  relative viability: 0.973
EMC-BAC-2; first compound 1.265 µM
  relative viability: 0.787
EMC-BAC-2; first compound 4 µM
  relative viability: 0.795
SK-MES-1; first compound 0.04 µM
  relative viability: 0.875
SK-MES-1; first compound 0.1265 µM
  relative viability: 0.808
SK-MES-1; first compound 0.4 µM
  relative viability: 0.827
SK-MES-1; first compound 1.265 µM
  relative viability: 0.684
SK-MES-1; first compound 4 µM
  relative viability: 0.996
LK-2; first compound 0.04 µM
  relative viability: 1.13
LK-2; first compound 0.1265 µM
  relative viability: 1.39
LK-2; first compound 0.4 µM
  relative viability: 0.784
LK-2; first compound 1.265 µM
  relative viability: 0.99
LK-2; first compound 4 µM
  relative viability: 0.808
ABC-1; first compound 0.04 µM
  relative viability: 0.931
ABC-1; first compound 0.1265 µM
  relative viability: 1.16
ABC-1; first compound 0.4 µM
  relative viability: 0.73
ABC-1; first compound 1.265 µM
  relative viability: 0.719
ABC-1; first compound 4 µM
  relative viability: 0.616
NCI-H2009; first compound 0.04 µM
  relative viability: 1.18
NCI-H2009; first compound 0.1265 µM
  relative viability: 1.25
NCI-H2009; first compound 0.4 µM
  relative viability: 1.14
NCI-H2009; first compound 1.265 µM
  relative viability: 1.14
NCI-H2009; first compound 4 µM
  relative viability: 1.24
PC-3 [JPC-3]; first compound 0.04 µM
  relative viability: 1.07
PC-3 [JPC-3]; first compound 0.1265 µM
  relative viability: 1.04
PC-3 [JPC-3]; first compound 0.4 µM
  relative viability: 1.03
PC-3 [JPC-3]; first compound 1.265 µM
  relative viability: 0.99
PC-3 [JPC-3]; first compound 4 µM
  relative viability: 0.724
